The record followed here is patent US20090304756A1, “Method for the Encapsulation and Controlled Release of Poorly Water-Soluble (Hyprophobic) Liquid and Solid Active Ingredients” (priority 2005, published 2009).

Molecules are shown by their SMILES.

Series [1] can be described thus: Amount of imidacloprid in particles, release into excess methanol with UV/vis analysis of supernatant. It counts as physicochemical. Particulars: silica templates 5 μm, pore 6 nm, PSS/PAH coated; released in large excess of methanol. On the procedure:
25 mg of the somewhat water-soluble active ingredient imidacloprid were dissolved in 3 ml of acetone, and 100 mg of spherical, porous silica templates (diameter 5 μm, pore size 6 nm) were added. After incubation for 30 min, water was added stepwise until the solution reached saturation of imidacloprid, evident from further considerable cloudiness. The supernatant was centrifuged off and the particles were suspended with 1% SDS solution. In this connection, here and in all of the following washing and coating solutions, imidacloprid saturated solutions were used in order to prevent a dissolving out from the particles. After the coating with PSS and PAH (analogously to Example 1), separate particles filled with 15% m/m (mass of imidacloprid/mass of particles) were obtained (FIG. 3). The amount of imidacloprid was determined by releasing the active ingredient in a large excess in methanol with subsequent UV/vis spectroscopic analysis of the supernatant.

Series [2] in a line: Perylene concentration in particle interior by confocal fluorescence microscopy. It counts as physicochemical. The note with it: C18 silica templates 5 μm, pore 6 nm, PAH/PSS LbL coated; self-quenching may feign lower concentration. How it is done:
12.5 mg of the model dye perylene were dissolved in 6 ml of chloroform. A suspension of 100 mg of spherical, porous silica templates (diameter 5 μm, pore size 6 nm) in 1 ml of chloroform was added thereto. The surface of the templates is hydrophobically modified with C18 alkyl chains (RP 18, chromatography material). The solvent was evaporated at 40° C. in a drying cabinet with stirring. The powder which remained was resuspended in water with the help of 1% sodium dodecyl sulphate (SDS). […] Besides the fluorescence of the perylene in the particles, a few larger (and lighter) crystals of the pure dye can also be seen which no longer arise when using smaller fill amounts. The SDS solution was centrifuged off and the particles were incubated with 500 μl of a solution of 1 g/l Cy5 labelled poly(allylamine hydrochloride) (PAH-Cy5, MW 70000 g/mol), pH 6.5 and 0.5 M NaCl for 20 min with brief application of ultrasound. After washing the particles three times with water, 500 μl of a solution of 1 g/l of poly(sodium 4-styrenesulphonate) (PSS, MW 70000 g/mol) in 0.5 M NaCl with pH 6.1 are added. […]
The concentration of the perylene in the interior of the particles was determined via the fluorescence by confocal microscopy by reference to comparison solutions. […]

In the case of `O=[N+]([O-])NC1=NCCN1Cc1ccc(Cl)nc1` [imidacloprid], the “filling (mass of imidacloprid/mass of particles)” value in series [1] is 15 % m/m. For the molecule `c1cc2cccc3c4cccc5cccc(c(c1)c23)c54` [perylene], the “concentration of perylene in the interior of the particles” value in series [2] is listed as 8.5 mg of perylene per 100 mg of particles.
